Assay results: patent publication US6528286B1, “Mammalian cell culture process for producing glycoproteins” (Genentech, Inc., priority 1998, dated 2003)
“Also recorded” adds a separate entry of the source. Like-named read-outs stand apart in the source and are kept apart here.

Experiments:
[1] = system: CHO cells producing TNFR1-IgG1; type: cell-based, Chinese hamster; conditions: for SA content on day 9 / SA content on day 12 / Sialic Acid content on day 9 / Sialic Acid content on day 12: TNFR1-IgG1
Excerpt: The Chinese hamster ovary (CHO)cell line used as the mammalian host cell line was derived from CHO DG44 cells. The gene encoding the soluble type 1 TNFR-IgG1 was introduced into CHO DG44 cells by transfection. This was accomplished using the calcium phosphate technique for introducing DNA into mammalian cells. Clones expressing the TNFR1-IgG1 were amplified in methotrexate yielding high expressing clones and subsequently adapted to serum free medium. These cells were under continuous selective pressure until transferred to nonselective medium for growth and expansion of the inoculum. To provide cells for TNFR1-IgG1 production cultures the cell population described above was expanded from the medium containing methotrexate by serial subcultivations in vessels of increasing volumes to growth medium containing no methotrexate. For these steps of the process the non selective growth medium was DMEM/HAM F-12 based formulation (see, for example, U.S. Pat. No. 5,122,469, herein incorporated by reference in its entirety) with modified concentrations of some components, such as glucose, amino acids, salts, sugar, vitamins glycine, hypoxanthine, and thymidine; recombinant human insulin, hydrolyzed peptone (Protease Peptone 2 or 3, Primatone HS or Primatone RL), a cell protective agent such as Pluronic F68 (pluronic polyol) or the equivalent; Gentamycin; and trace elements. The cultures were controlled at pH 7.2+/−0.4 by the use of CO2 gas (acid) and /or Na2CO3 (base). Temperature was controlled near 37° C. during the growth period. Dissolved oxygen was maintained above 5% of air saturation by direct sparging with air and/or oxygen gas. The growth phase for each culture was followed by a second phase or transition phase wherein culture parameters were changed from growth to production conditions. During this transition phase the temperature of the culture system was decreased, generally to about between 30 and 35° C. and usually about 33° C. Copper chloride was added to the culture medium. Product accumulated during the production phase was analyzed for sialic acid content. […] Sialic acid content was analyzed by the method of Warren, L. (1959) J. Biol. Chem. 234:1971-1975. or the method of Anumula, K. R. (1995) Anal. Biochem. 230:24-30. Glycoprotein production culture was inoculated at 0.2% packed cell volume (PCV). Cells were grown for about 2 days under optimal growth conditions (37° C., low osmolality). When reaching 1% PCV (after about 2 days) the culture conditions were changed from optimal growth to production conditions. This means that growth is slowed under these conditions. This change includes a temperature shift to 33° C. and the addition of a complex feed (a concentrated form of media components). Due to the toxic effects of copper additions higher than 0.2 mM under growth conditions copper additions in the production phase of the glycoprotein production process were investigated. In the process, maximal cell mass was reached after the fifth day in culture. Since significant desialyation occurs after the fifth day in culture and especially significant decrease after about the eighth day in culture (FIG. 1), copper additions of 0.5 and 1.0 mM at day 6 and day 8 of the culture were investigated (FIG. 6). Further experiments were run to test copper additions at other concentrations. 0.38 mM copper was added.

[2] = system: CHO cells producing TNFR1-IgG1; experiment: Incubation of high cell concentration perfusion culture suspension in spinner flasks with CuCl2; type: cell-based, Chinese hamster; conditions: 1 mM and 5 mM CuCl2, 24 hours at 33° C.
Protocol: FIG. 2: Sialic acid (SA) content :of TNFR1-IgG1 after incubation of cell culture suspension taken from a perfusion culture at high cell concentration (6% packed cell volume, 77% viability at start of incubation) compared to starting sialic acid content before incubation. A sample of the perfusion culture was removed and incubated in spinner flasks containing 0, 1 mM and 5 mM CuCl2 for 24 hours at 33° C.
Sialic acid content was analyzed by the method of Warren, L. (1959) J. Biol. Chem. 234:1971-1975. or the method of Anumula, K. R. (1995) Anal. Biochem. 230:24-30.
To test the effect of CuCl2 on stabilization of the sialic acid content high cell concentration from a perfusion culture were incubated over night in spinner flasks with the addition 0, 1 and 5 mM CuCl2.

[3] = system: CHO cells producing TNFR1-IgG1; experiment: Impact of CuCl2 on growth and viability of CHO cells under growth conditions; type: cell-based, Chinese hamster
Protocol: CuCl2 was added to the culture medium before inoculation with cells at concentrations from 0 to 3.2 mM. Inhibition of growth could be detected above 0.2 mM.
CuCl2 was added to the culture medium before inoculation with cells at concentrations from 0-3.2 mM. A toxic effect could be observed at concentrations above 0.2 mM. Concentrations above 0.4 mM lead to rapid cell death.
Since heavy metals such as copper are toxic the effects of CuCl2 concentrations from 0-5 mM on growth and viability of CHO cells at 37° C. and 33° C. incubation temperature producing a glycoprotein were investigated(FIGS. 3, 4 and 5). Toxic effects and growth inhibition could be detected above 0.2 mM CuCl2.

CHO-K1 cells = conditions: copper-supplemented culture medium; cited from earlier work
[4] = system: Cytosolic and membrane-associated sialidase I; conditions: partially purified extracts from rat liver or rat skeletal muscle; cited from earlier work
HeLa cell = HeLa cell culture medium; cited from earlier work
[5] = 0.5 and 1.0 mM CuCl2 added in production phase
[6] = copper 0.38 mM added on day 6, Table III
[7] = copper 0.5 mM added on day 6, Table II
[8] = copper 0.5 mM added on day 6, Table III
[9] = copper 0.5 mM added on day 8, Table II
[10] = copper 1.0 mM added on day 6, Table II
[11] = copper 1.0 mM added on day 8, Table II

Q: For [Cl][Cu][Cl] [CuCl2], which “Culture performance and productivity” value [1, 5] is on record?
A: The value was “good culture performance and productivity”.

Q: What about the “Sialic acid content in production cultures” value [1, 5] of the same compound?
A: Its value is “stabilized”.

Q: And the “SA content on day 9” value [1, 6]?
A: The value was 5.5 mol/mol.

Q: And the “SA content on day 12” value [1, 6]?
A: Its value is 4.9 mol/mol.

Q: What about the “Sialic Acid content on day 9” value [1, 7] of the same compound?
A: The value was 5.3 mol/mol.

Q: What about the “Sialic Acid content on day 12” value [1, 7] of the same compound?
A: The value was 4.9 mol/mol.

Q: And the “SA content on day 9” value [1, 8]?
A: Its value is 5.3 mol/mol.

Q: And the “SA content on day 12” value [1, 8]?
A: The value was 5.0 mol/mol.

Q: And the “Sialic Acid content on day 9” value [1, 9]?
A: Its value is 5.0 mol/mol.

Q: And the “Sialic Acid content on day 12” value [1, 9]?
A: Its value is 5.0 mol/mol.

Q: What about the “Sialic Acid content on day 9” value [1, 10] of the same compound?
A: The value was 5.0 mol/mol.

Q: What about the “Sialic Acid content on day 12” value [1, 10] of the same compound?
A: The value was 5.0 mol/mol.

Q: And the “Sialic Acid content on day 9” value [1, 11]?
A: Its value is 5.0 mol/mol.

Q: And the “Sialic Acid content on day 12” value [1, 11]?
A: Its value is 5.0 mol/mol.

Q: What about the “Product concentr. on day 9” value [1, 6] of the same compound?
A: Its value is 324 mg/L.

Q: What about the “Product concentr. on day 12” value [1, 6] of the same compound?
A: The value was 518 mg/L.

Q: And the “Product concentr. on day 9” value [1, 7]?
A: The value was 230 mg/L.

Q: What about the “Product concentr. on day 12” value [1, 7] of the same compound?
A: Its value is 304 mg/L.

Q: What about the “Product concentr. on day 9” value [1, 8] of the same compound?
A: The value was 350 mg/L.

Q: And the “Product concentr. on day 12” value [1, 8]?
A: The value was 545 mg/L.

Q: And the “Product concentr. on day 9” value [1, 9]?
A: Its value is 244 mg/L.

Q: And the “Product concentr. on day 12” value [1, 9]?
A: The value was 417 mg/L.

Q: What about the “Product concentr. on day 9” value [1, 10] of the same compound?
A: Its value is 218 mg/L.

Q: And the “Product concentr. on day 12” value [1, 10]?
A: The value was 286 mg/L.

Q: And the “Product concentr. on day 9” value [1, 11]?
A: The value was 289 mg/L.

Q: And the “Product concentr. on day 12” value [1, 11]?
A: Its value is 371 mg/L.

Q: And the “Stabilization of sialic acid content of TNFR1-IgG1” value [2]?
A: The value was “effective in stabilizing the sialic acid content in a dose dependent manner; also recorded: effective in stabilizing the SA content in a dose dependent manner”.

Q: What about the “Toxic effect at 37 versus 33° C. incubation temperature” value ([3]; 0-5 mM CuCl2) of the same compound?
A: The value was “very similar for 37 °C and 33 °C”.

Q: What about the “CuCl2 concentration above which inhibition of growth could be detected” value ([3]; added before inoculation, 0 to 3.2 mM (0-5 mM)) of the same compound?
A: The value was “above 0.2 mM”.

Q: What about the “Copper concentration above which cell death results” value ([3]; conditions normally associated with cell growth) of the same compound?
A: Its value is “above 0.4 mM”.

Q: And the “CuCl2 concentration above which a toxic effect on viability could be observed” value ([3]; growth conditions, added before inoculation)?
A: Its value is “above 0.2 mM”.

Q: What does the source list for [Cu+2] [Cu^2+]?
A: LD50 (CHO-K1 cells): 126 µM; Copper ion concentration at which sialidase I was inhibited [4]: approximately 1 mM; Copper ion concentrations that did not interfere with cell growth (HeLa cell): 1-100 μm
